Legend:
[1] = molecular target: PI3K (phosphatidylinositol 3-kinase) (Homo sapiens, UniProt P42336); settings: cited from earlier work
[2] = tested on: human xenograft tumor models; settings: multiple human xenograft tumor models; cited from earlier work
PI3K signaling pathway = settings: cell lines in vitro and human xenograft tumor tissue in vivo; cited from earlier work
[3] = stability comparison of polymorphic forms; type: physicochemical; settings: solid state, polymorphic forms of Compound (I)

Sequence of PI3K (phosphatidylinositol 3-kinase) (P42336 whole entry): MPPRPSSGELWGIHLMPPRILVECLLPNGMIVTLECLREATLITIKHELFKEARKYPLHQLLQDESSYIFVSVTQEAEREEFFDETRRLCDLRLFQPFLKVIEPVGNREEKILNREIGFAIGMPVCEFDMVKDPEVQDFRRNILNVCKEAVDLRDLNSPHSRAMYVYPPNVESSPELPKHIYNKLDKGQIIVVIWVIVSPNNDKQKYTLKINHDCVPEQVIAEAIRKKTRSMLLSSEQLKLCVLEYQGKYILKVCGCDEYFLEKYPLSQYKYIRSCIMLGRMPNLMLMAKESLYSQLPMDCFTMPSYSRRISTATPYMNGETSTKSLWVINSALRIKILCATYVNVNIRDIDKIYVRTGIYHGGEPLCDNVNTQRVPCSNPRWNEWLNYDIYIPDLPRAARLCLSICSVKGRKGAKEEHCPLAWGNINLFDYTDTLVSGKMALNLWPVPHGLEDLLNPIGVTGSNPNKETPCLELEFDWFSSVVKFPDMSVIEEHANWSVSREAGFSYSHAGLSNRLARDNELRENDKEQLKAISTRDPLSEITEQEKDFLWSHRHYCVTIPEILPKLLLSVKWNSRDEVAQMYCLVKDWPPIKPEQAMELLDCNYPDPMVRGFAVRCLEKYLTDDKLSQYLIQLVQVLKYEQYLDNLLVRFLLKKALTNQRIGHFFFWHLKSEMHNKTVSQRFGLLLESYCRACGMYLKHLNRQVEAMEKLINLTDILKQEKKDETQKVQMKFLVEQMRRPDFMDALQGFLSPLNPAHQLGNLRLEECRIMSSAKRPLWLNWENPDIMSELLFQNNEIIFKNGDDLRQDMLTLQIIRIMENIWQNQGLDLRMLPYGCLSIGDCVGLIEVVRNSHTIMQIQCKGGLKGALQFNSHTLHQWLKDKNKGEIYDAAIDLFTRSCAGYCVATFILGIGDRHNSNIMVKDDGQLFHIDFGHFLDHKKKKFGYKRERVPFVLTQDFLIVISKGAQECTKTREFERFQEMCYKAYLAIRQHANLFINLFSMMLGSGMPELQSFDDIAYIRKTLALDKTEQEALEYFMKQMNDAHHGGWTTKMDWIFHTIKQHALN
Sequence of PI3K (phosphatidylinositol 3-kinase) (P27986 whole entry partner): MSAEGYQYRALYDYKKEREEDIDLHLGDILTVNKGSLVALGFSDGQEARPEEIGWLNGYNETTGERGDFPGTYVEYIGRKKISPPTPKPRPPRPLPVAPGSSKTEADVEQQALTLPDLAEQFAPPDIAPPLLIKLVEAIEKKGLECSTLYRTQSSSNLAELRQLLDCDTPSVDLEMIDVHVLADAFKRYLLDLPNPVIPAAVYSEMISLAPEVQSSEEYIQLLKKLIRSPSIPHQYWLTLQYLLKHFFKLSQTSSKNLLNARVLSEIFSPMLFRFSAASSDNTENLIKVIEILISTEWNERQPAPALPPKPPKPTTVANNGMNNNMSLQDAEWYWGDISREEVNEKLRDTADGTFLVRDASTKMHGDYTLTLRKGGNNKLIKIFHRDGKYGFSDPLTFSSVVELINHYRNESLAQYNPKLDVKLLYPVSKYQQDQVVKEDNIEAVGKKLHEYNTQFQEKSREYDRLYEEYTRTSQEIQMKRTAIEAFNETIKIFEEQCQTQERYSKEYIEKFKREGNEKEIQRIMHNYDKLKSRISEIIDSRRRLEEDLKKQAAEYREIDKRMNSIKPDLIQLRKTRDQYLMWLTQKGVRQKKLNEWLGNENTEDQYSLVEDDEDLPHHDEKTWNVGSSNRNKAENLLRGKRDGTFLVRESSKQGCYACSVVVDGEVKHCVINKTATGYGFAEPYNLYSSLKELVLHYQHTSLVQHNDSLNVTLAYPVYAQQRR

Structure (SMILES): COc1ccc(Cl)c(Nc2nc3ccccc3[nH]/c2=N\S(=O)(=O)c2cccc(NC(=O)C(C)(C)N)c2)c1 [Compound (I), N-(3-{[(2Z)-3-[(2-chloro-5-methoxyphenyl)amino]quinoxalin-2(1H)-ylidene]sulfamoyl}phenyl)-2-methylalaninamide]
- inhibition of PI3K [1]: potent and selective inhibitor
- tumor growth in human xenograft tumor models [2]: tumor growth inhibition and tumor regression
- phosphorylation of multiple downstream components of the PI3K signaling pathway (PI3K signaling pathway): inhibits phosphorylation

Structure (SMILES): COc1ccc(Cl)c(Nc2nc3ccccc3nc2NS(=O)(=O)c2cccc(NC(=O)C(C)(C)N)c2)c1 [Polymorph E, N-(3-{[(2Z)-3-[(2-chloro-5-methoxyphenyl)amino]quinoxalin-2(1H)-ylidene]sulfamoyl}phenyl)-2-methylalaninamide]
- stability among the polymorphic forms evaluated [3]: most stable polymorphic form
